# According to PMC6572064, “Discovery of 2-(1-(3-(4-Chloroxyphenyl)-3-oxo- propyl)pyrrolidine-3-yl)-1H-benzo[d]imidazole-4-carboxamide: A Potent Poly(ADP-ribose) Polymerase (PARP) Inhibitor for Treatment of Cancer” (Molecules, 2019):
# Where two headings read alike, the source gives them in different places.
# Columns and labels:
# [1] = test system: MDA-MB-436 (a BRCA-1-mutated breast cancer cell line); test: Cell proliferation assay, three-day, CellTiter-Glo, MDA-MB-436; type: cell-based; settings: Homo sapiens; for inhibition at 0.00508 µM: MDA-MB-436, MDA-MB-436, Conc. 0.00508 uM; for inhibition at 0.0152 µM: MDA-MB-436, MDA-MB-436, Conc. 0.0152 uM; for inhibition at 0.0457 µM: MDA-MB-436, MDA-MB-436, Conc. 0.0457 uM; for inhibition at 0.41 µM: MDA-MB-436, MDA-MB-436, Conc. 0.41 uM; for inhibition at 1.23 µM: MDA-MB-436, MDA-MB-436, Conc. 1.23 uM; for inhibition at 3.7 µM: MDA-MB-436, MDA-MB-436, Conc. 3.70 uM; for inhibition at 11.11 µM: MDA-MB-436, MDA-MB-436, Conc. 11.11 uM; for inhibition at 33.33 µM: MDA-MB-436, MDA-MB-436, Conc. 33.33 uM; for inhibition at 100 µM: MDA-MB-436, MDA-MB-436, Conc. 100.00 uM; for IC50: MDA-MB-436, 72 h, CellTiter-Glo, read-out: MDA-MB-436 IC50
# Method in brief: (§1)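 Cells seeded overnight in 384-well plates, then exposed to compounds (DMSO stock diluted in medium) for 72 h at 37 °C, 5% CO2. Viability read as CellTiter-Glo luminescence after 60 min at room temperature.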
# [2] = target: T1, PARP-2 (Homo sapiens, UniProt Q9UGN5); test: PARP-2 inhibition assay (PARP-2 Chemiluminescent Assay Kit, BPS Bioscience); type: biochemical; settings: for inhibition at 0.01 µM: 10 nM compound
# T1 construct: purchased BPS Bioscience 80552
# Experimental: (§2) The PARP-1 and PARP-2 inhibition assays were performed in outsourcing, by a CRO company, Shanghai Medicilon Inc. (Shanghai, China). […] Briefly, PARP-1 or PARP-2 biotinylated substrate was incubated with compounds or solvent control at varying concentrations and an assay buffer containing the PARP-1 or PARP-2 enzyme.
# [3] = target: T2, PARP-1 (Homo sapiens, UniProt P09874); test: PARP-1 inhibition assay (PARP-1 Chemiluminescent Assay Kit, BPS Bioscience); type: biochemical; settings: for inhibition at 0.01 µM: 10 nM compound
# T2 construct: purchased BPS Bioscience 80569
# Experimental: as §2
# [4] = test system: CAPAN-1 (a BRCA-2-mutated pancreatic cancer cell line); test: Cell proliferation assay, three-day, CellTiter-Glo, CAPAN-1; type: cell-based; settings: for IC50 / inhibition at 0.00508 µM / inhibition at 0.0152 µM / inhibition at 0.0457 µM / inhibition at […] / inhibition at 0.41 µM / inhibition at 1.23 µM / inhibition at 3.7 µM / inhibition at 11.11 µM / inhibition at 33.33 µM / inhibition at 100 µM: Homo sapiens; for IC50: CAPAN-1, 72 h, CellTiter-Glo, read-out: CAPAN-1 IC50; for inhibition at 0.0457 µM: CAPAN-1, 0.0457 uM; for inhibition at […]: CAPAN-1, 0.14 uM; for inhibition at 0.41 µM: CAPAN-1, 0.41 uM; for inhibition at 1.23 µM: CAPAN-1, 1.23 uM; for inhibition at 3.7 µM: CAPAN-1, 3.70 uM; for inhibition at 11.11 µM: CAPAN-1, 11.11 uM; for inhibition at 33.33 µM: CAPAN-1, 33.33 uM; for inhibition at 100 µM: CAPAN-1, 100.00 uM
# Method in brief: as §1
# [5] = supplement sheet, read-out: 10 nM inhibition% PAPR-2
# [6] = read-out: PARP-2 Inhibition % (10 nM)
# [7] = supplement sheet, read-out: 10 nM inhibition% PAPR-1
# [8] = read-out: PARP-1 Inhibition % (10 nM)
# T1 sequence (Q9UGN5 whole entry): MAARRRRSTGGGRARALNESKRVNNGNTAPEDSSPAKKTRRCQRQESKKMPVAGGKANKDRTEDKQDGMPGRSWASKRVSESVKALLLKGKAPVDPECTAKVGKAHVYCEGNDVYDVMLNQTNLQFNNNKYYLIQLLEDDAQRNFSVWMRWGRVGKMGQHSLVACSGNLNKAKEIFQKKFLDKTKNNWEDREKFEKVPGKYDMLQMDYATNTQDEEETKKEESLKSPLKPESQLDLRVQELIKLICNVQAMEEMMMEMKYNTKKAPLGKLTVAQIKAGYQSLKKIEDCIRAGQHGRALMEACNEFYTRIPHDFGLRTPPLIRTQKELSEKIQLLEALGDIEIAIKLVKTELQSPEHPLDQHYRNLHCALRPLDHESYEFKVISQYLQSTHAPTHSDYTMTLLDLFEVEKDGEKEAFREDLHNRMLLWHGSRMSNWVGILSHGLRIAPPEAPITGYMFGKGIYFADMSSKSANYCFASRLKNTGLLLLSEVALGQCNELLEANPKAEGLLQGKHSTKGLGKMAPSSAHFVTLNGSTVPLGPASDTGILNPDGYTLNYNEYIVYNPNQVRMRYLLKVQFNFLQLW
# T2 sequence (P09874 whole entry): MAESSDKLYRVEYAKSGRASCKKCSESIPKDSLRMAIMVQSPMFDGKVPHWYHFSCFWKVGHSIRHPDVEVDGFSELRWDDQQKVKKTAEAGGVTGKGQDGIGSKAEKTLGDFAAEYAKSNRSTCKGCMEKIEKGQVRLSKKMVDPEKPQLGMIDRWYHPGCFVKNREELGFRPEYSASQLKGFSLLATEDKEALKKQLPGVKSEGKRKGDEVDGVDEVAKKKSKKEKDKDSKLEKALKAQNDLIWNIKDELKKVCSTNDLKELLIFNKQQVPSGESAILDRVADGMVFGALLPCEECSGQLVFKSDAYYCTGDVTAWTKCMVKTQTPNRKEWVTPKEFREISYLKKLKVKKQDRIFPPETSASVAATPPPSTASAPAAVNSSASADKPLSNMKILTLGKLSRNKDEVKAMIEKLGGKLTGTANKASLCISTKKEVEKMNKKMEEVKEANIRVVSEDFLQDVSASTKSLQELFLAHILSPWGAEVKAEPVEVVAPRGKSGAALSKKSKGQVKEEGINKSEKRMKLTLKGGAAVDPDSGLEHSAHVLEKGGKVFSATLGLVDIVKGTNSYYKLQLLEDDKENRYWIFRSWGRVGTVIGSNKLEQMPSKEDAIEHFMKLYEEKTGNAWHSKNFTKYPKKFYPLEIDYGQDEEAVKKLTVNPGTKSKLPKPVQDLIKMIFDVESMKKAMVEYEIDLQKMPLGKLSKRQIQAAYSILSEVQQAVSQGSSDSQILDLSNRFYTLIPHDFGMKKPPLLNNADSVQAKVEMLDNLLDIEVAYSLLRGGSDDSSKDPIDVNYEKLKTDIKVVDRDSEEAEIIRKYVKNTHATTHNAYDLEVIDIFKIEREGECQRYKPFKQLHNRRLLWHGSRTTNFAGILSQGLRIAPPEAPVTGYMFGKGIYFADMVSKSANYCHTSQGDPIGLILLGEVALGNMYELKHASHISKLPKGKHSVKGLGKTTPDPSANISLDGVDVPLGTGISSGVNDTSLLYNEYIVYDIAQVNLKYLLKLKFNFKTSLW
compound,measurement,setting,value
"NC(=O)c1cccc2[nH]c(C3CCN(CCCNc4ccccc4)C3)nc12 (stereo not drawn) [Compound 5ch, 2-(1-(3-(Phenylamino)propyl)pyrrolidin-3-yl)-1H-benzo[d]imidazole-4-carboxamide]",inhibition at 0.00508 µM,"[1]; replicate 1, read-out: Inh % 1",-7%
same,inhibition at 0.00508 µM,"[1]; replicate 2, read-out: Inh % 2",-8.2%
same,inhibition at 0.0152 µM,"[1]; replicate 1, read-out: Inh % 1",-3%
same,inhibition at 0.0152 µM,"[1]; replicate 2, read-out: Inh % 2",-8%
same,inhibition at 0.0457 µM,"[1]; replicate 1, read-out: Inh % 1",-14.2%
same,inhibition at 0.0457 µM,"[1]; replicate 2, read-out: Inh % 2",-14.8%
same,inhibition at 0.41 µM,"[1]; replicate 1, read-out: Inh % 1",-13.7%
same,inhibition at 0.41 µM,"[1]; replicate 2, read-out: Inh % 2",-16%
same,inhibition at 1.23 µM,"[1]; replicate 1, read-out: Inh % 1",-13.7%
same,inhibition at 1.23 µM,"[1]; replicate 2, read-out: Inh % 2",-10.6%
same,inhibition at 3.7 µM,"[1]; replicate 1, read-out: Inh % 1",-16.2%
same,inhibition at 3.7 µM,"[1]; replicate 2, read-out: Inh % 2",-4.5%
same,inhibition at 11.11 µM,"[1]; replicate 1, read-out: Inh % 1",-9.3%
same,inhibition at 11.11 µM,"[1]; replicate 2, read-out: Inh % 2",-8.6%
same,inhibition at 33.33 µM,"[1]; replicate 1, read-out: Inh % 1",3.2%
same,inhibition at 33.33 µM,"[1]; replicate 2, read-out: Inh % 2",-1.4%
same,inhibition at 100 µM,"[1]; replicate 1, read-out: Inh % 1",39.9%
same,inhibition at 100 µM,"[1]; replicate 2, read-out: Inh % 2",37.2%
same,IC50,[1],> 100000 nM
same,inhibition at 0.01 µM,[2]; [5],66.2%
same,inhibition at 0.01 µM,[2]; [6],66.2%
same,IC50,[2]; read-out: PARP-2 IC50,3.3 nM
same,IC50,"[2]; supplement sheet, read-out: IC50 PAPR-2",3.33 nM
same,inhibition at 0.01 µM,[3]; [7],47.5%
same,inhibition at 0.01 µM,[3]; [8],47.5%
same,IC50,[3]; read-out: PARP-1 IC50,7.1 nM
same,IC50,"[3]; supplement sheet, read-out: IC50 PAPR-1",7.14 nM
same,LogIC50,"[4]; CAPAN-1, curve-fit output, Log (uM)",2.153
same,IC50,[4],> 100000 nM
same,inhibition at 0.00508 µM,"[4]; CAPAN-1, 0.00508 uM, replicate 1, read-out: Inh % 1",2.8%
same,inhibition at 0.00508 µM,"[4]; CAPAN-1, 0.00508 uM, replicate 2, read-out: Inh % 2",-6.9%
same,inhibition at 0.0152 µM,"[4]; CAPAN-1, 0.0152 uM, replicate 1, read-out: Inh % 1",3.5%
same,inhibition at 0.0152 µM,"[4]; CAPAN-1, 0.0152 uM, replicate 2, read-out: Inh % 2",0.5%
same,inhibition at 0.0457 µM,"[4]; replicate 1, read-out: Inh % 1",5%
same,inhibition at 0.0457 µM,"[4]; replicate 2, read-out: Inh % 2",0.2%
same,inhibition at […],"[4]; replicate 1, read-out: Inh % 1",-1.8%
same,inhibition at […],"[4]; replicate 2, read-out: Inh % 2",-3%
same,inhibition at 0.41 µM,"[4]; replicate 1, read-out: Inh % 1",6.4%
same,inhibition at 0.41 µM,"[4]; replicate 2, read-out: Inh % 2",6.3%
same,inhibition at 1.23 µM,"[4]; replicate 1, read-out: Inh % 1",-2.4%
same,inhibition at 1.23 µM,"[4]; replicate 2, read-out: Inh % 2",-3.6%
same,inhibition at 3.7 µM,"[4]; replicate 1, read-out: Inh % 1",7.7%
same,inhibition at 3.7 µM,"[4]; replicate 2, read-out: Inh % 2",10.2%
same,inhibition at 11.11 µM,"[4]; replicate 1, read-out: Inh % 1",2.2%
same,inhibition at 11.11 µM,"[4]; replicate 2, read-out: Inh % 2",3%
same,inhibition at 33.33 µM,"[4]; replicate 1, read-out: Inh % 1",29.9%
same,inhibition at 33.33 µM,"[4]; replicate 2, read-out: Inh % 2",20.6%
same,inhibition at 100 µM,"[4]; replicate 1, read-out: Inh % 1",46.6%
same,inhibition at 100 µM,"[4]; replicate 2, read-out: Inh % 2",35.5%
"NC(=O)c1cccc2[nH]c(C3CCN(CCN4C(=O)c5ccccc5C4=O)C3)nc12 (stereo not drawn) [Compound 5ck, 2-(1-(2-(1,3-Dioxoisoindolin-2-yl)ethyl)pyrrolidin-3-yl)-1H-benzo[d]imidazole-4-carboxamide]",inhibition at 0.00508 µM,"[1]; replicate 1, read-out: Inh % 1",-0.108%
same,inhibition at 0.00508 µM,"[1]; replicate 2, read-out: Inh % 2",-3.8%
same,inhibition at 0.0152 µM,"[1]; replicate 1, read-out: Inh % 1",-3.1%
same,inhibition at 0.0152 µM,"[1]; replicate 2, read-out: Inh % 2",-1.8%
same,inhibition at 0.0457 µM,"[1]; replicate 1, read-out: Inh % 1",-9.3%
same,inhibition at 0.0457 µM,"[1]; replicate 2, read-out: Inh % 2",-11.9%
same,inhibition at 0.41 µM,"[1]; replicate 1, read-out: Inh % 1",-11%
same,inhibition at 0.41 µM,"[1]; replicate 2, read-out: Inh % 2",-21.7%
same,inhibition at 1.23 µM,"[1]; replicate 1, read-out: Inh % 1",-18.8%
same,inhibition at 1.23 µM,"[1]; replicate 2, read-out: Inh % 2",-14.6%
same,inhibition at 3.7 µM,"[1]; replicate 1, read-out: Inh % 1",-15.1%
same,inhibition at 3.7 µM,"[1]; replicate 2, read-out: Inh % 2",-12.2%
same,inhibition at 11.11 µM,"[1]; replicate 1, read-out: Inh % 1",-14.1%
same,inhibition at 11.11 µM,"[1]; replicate 2, read-out: Inh % 2",-10%
same,inhibition at 33.33 µM,"[1]; replicate 1, read-out: Inh % 1",-6.4%
same,inhibition at 33.33 µM,"[1]; replicate 2, read-out: Inh % 2",-12%
same,inhibition at 100 µM,"[1]; replicate 1, read-out: Inh % 1",-8.9%
same,inhibition at 100 µM,"[1]; replicate 2, read-out: Inh % 2",-13.6%
same,IC50,[1],> 100000 nM
same,inhibition at 0.01 µM,[2]; [5],37.1%
same,inhibition at 0.01 µM,[2]; [6],37.1%
same,inhibition at 0.01 µM,[3]; [7],6.02%
same,inhibition at 0.01 µM,[3]; [8],6%
same,IC50,[4],> 100000 nM
same,inhibition at 0.0457 µM,"[4]; replicate 1, read-out: Inh % 1",-1.5%
same,inhibition at 0.0457 µM,"[4]; replicate 2, read-out: Inh % 2",-9.2%
same,inhibition at […],"[4]; replicate 1, read-out: Inh % 1",8.7%
same,inhibition at […],"[4]; replicate 2, read-out: Inh % 2",-3.2%
same,inhibition at 0.41 µM,"[4]; replicate 1, read-out: Inh % 1",9%
same,inhibition at 0.41 µM,"[4]; replicate 2, read-out: Inh % 2",-5.8%
same,inhibition at 1.23 µM,"[4]; replicate 1, read-out: Inh % 1",3.9%
same,inhibition at 1.23 µM,"[4]; replicate 2, read-out: Inh % 2",-9.8%
same,inhibition at 3.7 µM,"[4]; replicate 1, read-out: Inh % 1",1.2%
same,inhibition at 3.7 µM,"[4]; replicate 2, read-out: Inh % 2",2.6%
same,inhibition at 11.11 µM,"[4]; replicate 1, read-out: Inh % 1",-2.3%
same,inhibition at 11.11 µM,"[4]; replicate 2, read-out: Inh % 2",-4.3%
same,inhibition at 33.33 µM,"[4]; replicate 1, read-out: Inh % 1",6.8%
same,inhibition at 33.33 µM,"[4]; replicate 2, read-out: Inh % 2",4.4%
same,inhibition at 100 µM,"[4]; replicate 1, read-out: Inh % 1",-2.5%
same,inhibition at 100 µM,"[4]; replicate 2, read-out: Inh % 2",-5.6%
same,inhibition at 0.00508 µM,"[4]; CAPAN-1, Conc. 0.00508 uM, replicate 1, read-out: Inh % 1",2.6%
same,inhibition at 0.00508 µM,"[4]; CAPAN-1, Conc. 0.00508 uM, replicate 2, read-out: Inh % 2",0.639%
same,inhibition at 0.0152 µM,"[4]; CAPAN-1, Conc. 0.0152 uM, replicate 1, read-out: Inh % 1",6.1%
same,inhibition at 0.0152 µM,"[4]; CAPAN-1, Conc. 0.0152 uM, replicate 2, read-out: Inh % 2",-0.5%
